Data from article PMC5481817, “Developing Targeted Hybrid Imaging Probes by Chelator Scaffolding” (Bioconjugate chemistry, 2017).

How the values were obtained:
integrin αvβ3 = biological target: T1, integrin αvβ3 (Homo sapiens, UniProt P05106+P06756); experiment: Integrin binding affinity assay (displacement of [125I]-c(RGDyV)) on M21 cells; details: metal-free conjugate or reference peptide, radioligand [125I]-c(RGDyV), 2 h RT
T1 construct: endogenous in cells; host or cells: human melanoma M21 cells (gift from D. A. Cheresh)
T1 sequence (P06756 31-889 limits assumed): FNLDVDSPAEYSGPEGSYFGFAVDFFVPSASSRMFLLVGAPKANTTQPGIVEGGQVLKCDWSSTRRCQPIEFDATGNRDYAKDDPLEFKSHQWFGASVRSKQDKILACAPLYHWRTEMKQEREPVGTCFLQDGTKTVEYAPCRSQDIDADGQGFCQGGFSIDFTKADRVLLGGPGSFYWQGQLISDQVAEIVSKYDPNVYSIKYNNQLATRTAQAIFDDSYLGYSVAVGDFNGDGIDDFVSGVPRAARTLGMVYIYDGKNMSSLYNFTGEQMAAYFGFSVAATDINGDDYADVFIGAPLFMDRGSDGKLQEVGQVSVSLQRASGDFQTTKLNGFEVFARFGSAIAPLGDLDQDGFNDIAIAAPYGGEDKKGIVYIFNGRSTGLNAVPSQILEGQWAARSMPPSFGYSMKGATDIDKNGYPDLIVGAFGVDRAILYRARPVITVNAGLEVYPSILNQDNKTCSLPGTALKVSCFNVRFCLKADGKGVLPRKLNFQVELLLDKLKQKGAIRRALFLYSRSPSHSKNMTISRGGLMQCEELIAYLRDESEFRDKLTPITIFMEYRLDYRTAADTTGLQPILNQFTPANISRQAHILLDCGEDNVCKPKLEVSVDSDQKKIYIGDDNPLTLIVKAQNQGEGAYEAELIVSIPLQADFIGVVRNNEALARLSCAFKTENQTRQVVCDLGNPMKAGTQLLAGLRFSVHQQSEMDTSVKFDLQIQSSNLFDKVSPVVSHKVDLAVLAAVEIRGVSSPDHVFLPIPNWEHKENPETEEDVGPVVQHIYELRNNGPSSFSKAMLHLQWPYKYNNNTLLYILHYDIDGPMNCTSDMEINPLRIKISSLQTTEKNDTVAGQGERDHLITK
T1 sequence (P06756 891-1048 partner limits assumed): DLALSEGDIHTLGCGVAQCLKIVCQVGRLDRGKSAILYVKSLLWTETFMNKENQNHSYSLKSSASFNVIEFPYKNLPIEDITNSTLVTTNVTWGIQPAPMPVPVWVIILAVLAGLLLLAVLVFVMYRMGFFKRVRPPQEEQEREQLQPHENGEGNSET
T1 sequence (P05106 27-788): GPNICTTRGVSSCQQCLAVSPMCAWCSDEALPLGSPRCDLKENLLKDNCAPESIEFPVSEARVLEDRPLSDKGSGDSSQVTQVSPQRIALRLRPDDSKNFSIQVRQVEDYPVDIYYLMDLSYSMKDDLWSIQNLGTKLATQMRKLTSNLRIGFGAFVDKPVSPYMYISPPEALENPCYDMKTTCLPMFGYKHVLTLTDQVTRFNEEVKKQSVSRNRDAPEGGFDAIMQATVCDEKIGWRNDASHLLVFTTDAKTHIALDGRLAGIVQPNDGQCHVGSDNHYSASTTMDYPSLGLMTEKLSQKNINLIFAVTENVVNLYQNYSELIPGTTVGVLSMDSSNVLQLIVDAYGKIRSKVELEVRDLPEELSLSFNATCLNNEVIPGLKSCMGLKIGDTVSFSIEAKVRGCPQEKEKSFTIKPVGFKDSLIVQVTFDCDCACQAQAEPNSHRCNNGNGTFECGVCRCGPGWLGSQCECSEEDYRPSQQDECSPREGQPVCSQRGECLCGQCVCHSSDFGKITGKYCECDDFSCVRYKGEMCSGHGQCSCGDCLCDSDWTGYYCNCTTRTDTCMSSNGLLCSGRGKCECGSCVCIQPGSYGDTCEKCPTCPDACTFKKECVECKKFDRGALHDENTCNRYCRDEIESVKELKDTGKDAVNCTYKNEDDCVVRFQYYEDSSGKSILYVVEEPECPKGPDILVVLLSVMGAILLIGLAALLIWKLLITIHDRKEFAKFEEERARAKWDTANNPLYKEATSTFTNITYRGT
Protocol: Receptor binding affinities were evaluated via a displacement cell-binding assay for metal free as well as metal bound ([^natGa]) conjugates. Binding of nonradioactive gallium was performed in analogy to the radiolabeling procedure but instead of the generator eluate a 100-fold molar excess of gallium bromide (GaBr3) dissolved in 100 μL 0.1 N HCl was used. Cells were prepared as described below and incubated with increasing concentrations [0.001–1000 nM] of competitor in triplicate. After addition of corresponding iodinated radioligand the 96-well MulitScreen Filter Plates HTS (1 μm glass fiber filter, Merck Millipore, Darmstadt, Germany) were incubated for 1 or 2 h at RT under shaking conditions (Compact shaker KS-15 control, 200/min) and after a washing step the remaining activity on the filter was measured in the γ-counter. The receptor affinity of DOTA-minigastrin11 as well as c(RGDyV) were determined under the corresponding conditions as a reference. IC50 values were calculated by using nonlinear curve fitting with following formula NS+SB/(1+x/IC50) on Origin 6.1 software (Northampton, MA, USA). A detailed description regarding iodination can be found in the Supporting Information.
Integrin binding affinity assay was adapted from Yun Wu et al.[31] Briefly, M21 cells were washed two times with phosphate buffered saline followed by suspension in binding buffer (=20 mM TRIS pH 7.4 + 150 mM NaCl + 2 mM CaCl2 + 1 mM MgCl2 + 1 mM MnCl2 0.1% BSA). 96-well plates were washed with 200 μL of 20 mM TRIS-buffer and seeded with 1 × 10^6 cells/well (10^7 cells/mL). After 10 min of incubation in the presence of the competitor {([^natGa])Sulfo-Cy7-FSC-RGD or c(RGDyV) diluted in binding buffer)} volume was adjusted to 200 μL/well by adding 50 μL of radioligand ([^125I]-c(RGDyV), 4.5 × 10^4 cpm) and the plate was left for 2 h at RT. Finally the supernatant was removed by vacuum and each well was washed three times with 200 μL ice-cold binding buffer.

[1] = test system: M21 (αvβ3-positive) cells; experiment: Fluorescence measured cell specificity, M21; assay type: cell-based, human; details: 2 h incubation, 3 nM ligand
Protocol: (§1) Fluorescence assays were conducted similarly to the internalization assays except for using lower cell numbers and determining only the cellbound fraction. Briefly, A431-CCK2R, M21, and M21-L cells were diluted in corresponding media to a density of 2 × 10^6 cells/mL. Aliquots of 0.5 mL were transferred to Eppendorf tubes—six technical replicates for A431-CCK2R unblocked and blocked and M21/M21-L, respectively—and treated in the same manner as described above. The nonradiolabeled particular ligand was added to a final concentration of 3 nM and the tubes were kept in an incubator (Incubator hood TH15 and Compact shaker KS-15 control, Edmund Bühler GmbH, Hechingen, Germany) at 37 °C for 2 h under vigorously shaking (420/min). After centrifugation (2 min, 5000 rpm) washing steps were performed as mentioned before. […] Fluorescence intensity was measured with Tecan Infinite 200 PRO series multiplate reader (Tecan Trading AG, Switzerland) by using Tecan Icontrol 1.1 software. Parameters were set as follows: Fluorescence Top reading; excitation/emission wavelength 740/790 nm; excitation bandwidth 9 nm; emission bandwidth 20 nm; gain optimal; number of flashes 25; integration time 25 μs. Results were calculated and expressed as percentage of cell-bound fluorescence in relation to the standards sample.

[2] = test system: M21-L (αvβ3-negative) cells; experiment: Fluorescence measured cell specificity, M21-L; assay type: cell-based, human; details: 2 h incubation, 3 nM ligand
Protocol: as §1

[3] = test system: mice bearing U-87MG tumor xenografts; experiment: Near-infrared fluorescence imaging, U-87MG xenografts; assay type: in vivo, mouse
Protocol: All animal experiments were conducted in accordance with regulations and guidelines of the Czech Animal Protection Act (No. 246/1992), and with the approval of the Czech Ministry of Education, Youth, and Sports (MSMT-22421/2013–12), and the institutional Animal Welfare Committee of the Faculty of Medicine and Dentistry of Palacky University in Olomouc. The studies were performed using female 8–10-week-old athymic BALB/c nude mice (Envigo, Horst, The Netherlands). […]
Tumor xenografts were established near the front shoulder of mice by subcutaneous injection of 5 × 10^6 cells (U-87 MG) or 2 × 10^6 cells (A431-CCK2R) and the same amount of A431-mock cells as a control in 200 μL appropriate medium and Matrigel (1:1). […] Tumors, blood, muscle tissue, and organs were extracted, weighed, and activity uptake of the samples was measured in the gamma counter. Results were expressed as percentage of injected dose per gram tissue (% ID/g). […] After reconstruction, acquired data was viewed and analyzed with PMOD software (PMOD Technologies Ltd., Zurich, Switzerland). […] Near-infrared in vivo fluorescence imaging was performed with an In-Vivo MS FX PRO small animal imaging system (Bruker Biospin Corporation, Woodbridge, CT, USA). […] An appropriate filter set (excitation = 730 nm and emission = 790 nm) was used for acquiring the Sulfo-Cy7-FSC-peptide - fluorescence in vivo. […]

human CCK-2 receptor = biological target: T2, human CCK-2 receptor (Homo sapiens, UniProt P32239); parameters: method as in unpublished data; details: comparison value, slight variances in experimental setting; ref unpublished data; cited from earlier work
T2 construct: expressed in transfected cells; host or cells: A431 human squamous carcinoma cells (gift from L. Aloj)
T2 sequence (P32239 1-447): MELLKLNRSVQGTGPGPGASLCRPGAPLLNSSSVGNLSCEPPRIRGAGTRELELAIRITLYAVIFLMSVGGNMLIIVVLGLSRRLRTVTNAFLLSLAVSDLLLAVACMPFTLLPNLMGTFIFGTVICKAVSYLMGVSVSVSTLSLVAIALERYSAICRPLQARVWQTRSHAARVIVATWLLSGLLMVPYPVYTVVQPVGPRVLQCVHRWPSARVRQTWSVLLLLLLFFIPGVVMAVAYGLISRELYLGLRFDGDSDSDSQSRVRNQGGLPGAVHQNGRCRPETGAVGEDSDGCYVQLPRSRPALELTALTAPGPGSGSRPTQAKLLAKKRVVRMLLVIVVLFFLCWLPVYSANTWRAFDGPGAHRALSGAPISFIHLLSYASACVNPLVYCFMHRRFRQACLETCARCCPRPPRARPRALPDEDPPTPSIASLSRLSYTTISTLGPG

IC50 (integrin αvβ3) [nM] | Compound | Fluorescence-determined cell uptake [1] [%] | Fluorescence-determined cell uptake [2] [%] | time of best contrast in fluorescence imaging ([3]; after administration) [h] | tumor retention in fluorescence imaging ([3]; two days after injection) | IC50 (human CCK-2 receptor) [nM]
1.13 ± 0.22 | CC1=CC(=O)N(O)CCCC(NC(=O)CCN2C(=O)CC(SCCOCCOCCOCCOCCC(=O)NCCCC[C@@H]3NC(=O)[C@@H](Cc4ccccc4)NC(=O)[C@H](CC(=O)O)NC(=O)CNC(=O)[C@H](CCCNC(=N)N)NC3=O)C2=O)C(=O)OCCC(C)=CC(=O)N(O)CCCC(NC(=O)CCN2C(=O)CC(SCCOCCOCCOCCOCCC(=O)NCCCC[C@@H]3NC(=O)[C@@H](Cc4ccccc4)NC(=O)[C@H](CC(=O)O)NC(=O)CNC(=O)[C@H](CCCNC(=N)N)NC3=O)C2=O)C(=O)OCCC(C)=CC(=O)N(O)CCCC(NC(=O)CCCCC[N+]2=C(C=CC3=CC(=CC=C4N(C)c5ccc(S(=O)(=O)O)cc5C4(C)C)CCC3)C(C)(C)c3cc(S(=O)(=O)[O-])ccc32)C(=O)OCC1 (stereo partly drawn) [Sulfo-Cy7-FSC-RGD, Sulfo-Cyanine7-FSC-(mal-c(RGDfK)-(PEG4))2] | 5.79 ± 0.88 | 1.74 ± 0.25 | 24 | completely washed out from tumor tissue | 
 | nonfluorescent divalent FSC-MG derivative: nonfluorescent divalent FSC-MG derivative, authors' unpublished data used for comparison (EAYGWMDF; Synthetic minigastrin analogue MG11, converted from the printed [D-Glu1,desGlu2-6]-Ala-Tyr-Gly-Trp-Met-Asp-Phe-NH2; Glu1 is D-Glu; C-terminal amide; Two peptides on one Fusarinine C chelator, no fluor) |  |  |  |  | 0.9 ± 0.2
